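All cell lines were grown in 96-well plates and treated with compound for 48 hours. The concentration for 50% growth inhibition is given as GI50.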 Activity calls are given as the source filed them. Rule as the data show it: active = GI50 up to about 1.1 µM and inactive = higher. Where only a bound is given, the exact number is not on record here.

Test systems include PC-3; A549; SF-539; UO-31; SF-295; SNB-19; T47D; UACC-257; SF-268; ACHN; CCRF-CEM; K562; UACC-62; U-251; HCC 2998; MDA-MB-435; HT-29; HCT-116; MDA-MB-231; MCF7.
Holding throughout (test): NCI-60 cell line screen, 48 h

As to `COc1ccc2c(c1)-c1nn(CCN(C)C)c3ccc(C(=O)NCCCN(C)CCCNC(=O)c4ccc5c6c(c7cc(OC)ccc7nc46)NN5CCN(C)C)c(c13)N2`, the GI50 with PC-3 was 0.0208 µM (active); with A549, 0.0136 µM (active); with SF-539, < 0.01 µM (active); in the test with UO-31, 0.183 µM (active); in the test on SF-295 it was 0.0671 µM (active); in the test with SNB-19, 0.0159 µM (active). Further, the GI50 with T47D was 0.158 µM (active); with UACC-257, 0.0702 µM (active); in the test on SF-268, 0.153 µM (active); with ACHN, 0.0607 µM (active); in the test with CCRF-CEM, < 0.01 µM (active); in the test with K562, 0.0128 µM (active). The GI50 with UACC-62 is 0.0692 µM (active); with U-251, < 0.01 µM (active); in the test with HCC 2998, 0.045 µM (active); with MDA-MB-435, 0.0401 µM (active); with HT-29 it was 0.0213 µM (active); with HCT-116, < 0.01 µM (active). The results for the GI50 in the test on MDA-MB-231 and with MCF7 were 0.114 µM (active) and 0.0202 µM (active), respectively.

As for `CCOC(=O)NN(C(=O)OCC)C(C(=O)c1ccccc1)N(NC(=O)OCC)C(=O)OCC`, the GI50 in the test on PC-3, in the test with A549, with SF-539, in the test on UO-31, in the test on SF-295 and with SNB-19 was > 100 µM (inactive) throughout. Also, the GI50 in the test on T47D, in the test on UACC-257, in the test with SF-268, in the test with ACHN, in the test with CCRF-CEM and in the test with K562 was > 100 µM (inactive) in each case. Further, the GI50 with UACC-62, in the test with U-251, in the test with HCC 2998, with MDA-MB-435, in the test with HT-29 and with HCT-116 was > 100 µM (inactive) throughout. Also, the GI50 in the test with MDA-MB-231 and in the test with MCF7 was > 100 µM (inactive) each time.

In the case of `COc1cc2c(cc1OC)C(c1ccccc1CCCCl)=NCC2`, the GI50 in the test on PC-3 is 49.9 µM (inactive); in the test on A549, > 100 µM (inactive); in the test with SF-539, > 100 µM (inactive); in the test on UO-31, 85.9 µM (inactive); with SF-295, 68.7 µM (inactive); with SNB-19, > 100 µM (inactive). In addition, the GI50 was 42.8 µM (inactive) with T47D; 53.1 µM (inactive) in the test with UACC-257; 58.2 µM (inactive) in the test on SF-268; > 100 µM (inactive) in the test with ACHN; > 100 µM (inactive) in the test with CCRF-CEM; 35.8 µM (inactive) with K562. The GI50 in the test with UACC-62 was 40.9 µM (inactive); in the test on U-251 it was 8.07 µM (inactive); in the test with HCC 2998 it was 46.9 µM (inactive); in the test with MDA-MB-435, 10.8 µM (inactive); with HT-29 it was 44.2 µM (inactive); in the test with HCT-116, 45.9 µM (inactive). Also, the GI50 in the test on MDA-MB-231 is > 100 µM (inactive); in the test on MCF7, 95.5 µM (inactive).

Take `O=C(/C=C1/Nc2ccc([N+](=O)[O-])cc2N/C1=C/C(=O)c1ccc(Cl)cc1)c1ccccc1`: the GI50 was > 100 µM (inactive) in the test with PC-3; > 100 µM (inactive) in the test on A549; 30.3 µM (inactive) in the test on SF-539; > 100 µM (inactive) in the test on UO-31; 23.4 µM (inactive) in the test with SF-295; 37 µM (inactive) with SNB-19. The GI50 in the test on T47D is > 100 µM (inactive); with UACC-257, > 100 µM (inactive); with SF-268, 30.4 µM (inactive); with ACHN, > 100 µM (inactive); in the test on CCRF-CEM it was 64.7 µM (inactive); in the test on K562, 55.8 µM (inactive). Further, the GI50 in the test on UACC-62 is 20.5 µM (inactive); in the test on U-251 it was 30.8 µM (inactive); in the test with HCC 2998, > 100 µM (inactive); with MDA-MB-435 it was > 100 µM (inactive); in the test with HT-29 it was > 100 µM (inactive); with HCT-116 it was 56.9 µM (inactive). Besides, the GI50 is 35 µM (inactive) in the test on MDA-MB-231 and > 100 µM (inactive) in the test on MCF7.

Turning to `COc1ccc2c(c1)[C@@H](NC(C)=O)CCc1cc(OC)c(OC)c(OC)c1-2`, the GI50 in the test on PC-3 is 0.0251 µM (active); in the test on A549 it was 0.0176 µM (active); with SF-539, 0.013 µM (active); with UO-31, 0.0296 µM (active); with SF-295 it was 0.0151 µM (active); with SNB-19, 0.0222 µM (active). The GI50 in the test with T47D was > 100 µM (inactive); in the test on UACC-257, 0.108 µM (active); with SF-268 it was 0.0154 µM (active); in the test on ACHN, 0.0179 µM (active); in the test with CCRF-CEM, 0.0398 µM (active); with K562, 0.0128 µM (active). In addition, the GI50 with UACC-62 is 0.0154 µM (active); in the test with U-251 it was 0.0173 µM (active); in the test with HCC 2998, 0.0174 µM (active); in the test with MDA-MB-435 it was 0.0132 µM (active); in the test with HT-29, 0.0146 µM (active); in the test on HCT-116 it was 0.0148 µM (active). The GI50 in the test on MDA-MB-231 was 0.0228 µM (active); in the test on MCF7, 0.0463 µM (active).

With `O=C(CSc1nc2ccccc2c(=O)n1-c1ccccc1)N/N=C1\C(=O)Nc2ccc(F)cc21`, the GI50 with PC-3 is 1.85 µM (inactive); in the test with A549, 4 µM (inactive); in the test on SF-539, 3.14 µM (inactive); in the test on UO-31, 2 µM (inactive); in the test with SF-295, 1.87 µM (inactive); with SNB-19, 4.08 µM (inactive). Besides, the GI50 with T47D was 1.87 µM (inactive); in the test with UACC-257, 2.47 µM (inactive); in the test with SF-268, 2.25 µM (inactive); in the test on ACHN, 1.91 µM (inactive); in the test on CCRF-CEM, 2.35 µM (inactive); in the test on K562, 1.61 µM (inactive). In addition, the GI50 was 2.24 µM (inactive) in the test with UACC-62; 8.93 µM (inactive) in the test with U-251; 2.21 µM (inactive) in the test on HCC 2998; 3.64 µM (inactive) with MDA-MB-435; 3.06 µM (inactive) with HT-29; 2.02 µM (inactive) in the test on HCT-116. Also, the GI50 in the test with MDA-MB-231 was 2.01 µM (inactive); with MCF7, 2.18 µM (inactive).

`COc1ccc(-c2cc(=O)c3c(O)cc(O)cc3o2)cc1OC`: the GI50 in the test on PC-3 was 55.1 µM (inactive); in the test on A549, > 100 µM (inactive); with SF-539 it was 18.4 µM (inactive); with UO-31, 36.7 µM (inactive); with SF-295, 44.8 µM (inactive); in the test on SNB-19 it was 26.6 µM (inactive). In addition, the GI50 in the test with T47D is 71.9 µM (inactive); in the test with UACC-257, > 100 µM (inactive); in the test on SF-268 it was 28.4 µM (inactive); in the test on ACHN, 35.5 µM (inactive); in the test on CCRF-CEM it was 41.8 µM (inactive); in the test with K562 it was 92.7 µM (inactive). Besides, the GI50 was 61.4 µM (inactive) in the test on UACC-62; 30 µM (inactive) in the test with U-251; > 100 µM (inactive) with HCC 2998; > 100 µM (inactive) in the test on MDA-MB-435; 81.8 µM (inactive) with HT-29; 28.2 µM (inactive) with HCT-116. The GI50 in the test on MDA-MB-231 and in the test with MCF7 was > 100 µM (inactive) each time.

Values taken from ChEMBL document CHEMBL1201862, “PubChem BioAssay data set” (2004).
